What was measured:
Assay type in all cases: cell-based
[1] = molecular target: T1, GPR139 (Homo sapiens, UniProt Q6DWJ6); test: cAMP dynamic 2 assay measuring Gi activation (forskolin) in CHO-139; details: CHO-139
T1 sequence (Q6DWJ6 1-353): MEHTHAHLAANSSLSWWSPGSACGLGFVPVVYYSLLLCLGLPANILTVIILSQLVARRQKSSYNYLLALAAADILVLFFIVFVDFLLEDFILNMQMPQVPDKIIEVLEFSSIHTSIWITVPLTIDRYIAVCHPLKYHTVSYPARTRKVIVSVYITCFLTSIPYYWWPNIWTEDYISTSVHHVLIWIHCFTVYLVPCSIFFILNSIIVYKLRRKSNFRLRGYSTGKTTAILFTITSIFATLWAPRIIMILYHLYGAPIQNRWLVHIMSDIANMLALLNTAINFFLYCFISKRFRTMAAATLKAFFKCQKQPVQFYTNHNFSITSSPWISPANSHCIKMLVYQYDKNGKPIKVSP
Description: (§1) The cAMP assay was performed as described in the work by Thomsen et al.[28] with few modifications. Breifly, CHO-139 and CHO-M1 was detached and resuspended to a concentration of 1 million cells/mL. 5 μL 2x concentrated compound (for Gs: +100 μM IBMX and for Gi: +100 μM IBMX +10 μM forskolin (Fsk)) and 5 μL cell suspension (5,000 cells/well) was mixed. The plate was sealed and incubated at room temperature for 30 min. Next, 10 μL detection reagents (lysis buffer containing 2.5% Eu^3+-anti-cAMP antibody and 2.5% cAMP-d2) was added and the plate was incubated for 1 hour at room temperature. The plate was read on an Envision (PerkinElmer, Waltham, MA, USA). The TR-FRET 665 nm/615 nm ratio, which is inversely proportional with the cAMP production, was used to determination the concentration of the cAMP response. […]
Supplementary Figure 2. cAMP dynamic 2 assay measuring Gi activation. 5,000 cells/well of CHO-139 (pink bars) or CHO-M1 (blue bars) cells are
incubated with the indicated compounds for 30 min at room temperature in the presence of 50 µM IBMX and 5 uM Fsk (expect “buffer (-Fsk) where only 50
µM IBMX is present). The straight line indicate the level of cAMP upon activation with 5 uM Fsk, and the grey area ±10% of the response. The responses are
one representative out of at two independent experiments performed in triplicates. Data points are means ± SD.

[2] = molecular target: T1, GPR139; test: cAMP dynamic 2 assay measuring Gs activation in CHO-139
Description: as §1
(§2) Supplementary Figure 1. cAMP dynamic 2 assay measuring Gs activation. 5,000 cells/well of CHO-139 (pink bars) or CHO-M1 (blue bars) cells are
(§3) incubated with the indicated compounds for 30 min at room temperature in the presence of 50 µM IBMX. 5 µM and 10 µM forskolin (Fsk) serves as positive
(§4) controls. The responses are one representative out of at two independent experiments performed in triplicates. Data points are means ± SD. […]
(§5) Data points are means ± SD.

[3] = molecular target: T2, M1 receptor (Homo sapiens, UniProt P11229); test: cAMP dynamic 2 assay measuring Gs activation in CHO-M1 (control)
T2 construct: host or cells: CHO-k1
T2 sequence (P11229 1-460): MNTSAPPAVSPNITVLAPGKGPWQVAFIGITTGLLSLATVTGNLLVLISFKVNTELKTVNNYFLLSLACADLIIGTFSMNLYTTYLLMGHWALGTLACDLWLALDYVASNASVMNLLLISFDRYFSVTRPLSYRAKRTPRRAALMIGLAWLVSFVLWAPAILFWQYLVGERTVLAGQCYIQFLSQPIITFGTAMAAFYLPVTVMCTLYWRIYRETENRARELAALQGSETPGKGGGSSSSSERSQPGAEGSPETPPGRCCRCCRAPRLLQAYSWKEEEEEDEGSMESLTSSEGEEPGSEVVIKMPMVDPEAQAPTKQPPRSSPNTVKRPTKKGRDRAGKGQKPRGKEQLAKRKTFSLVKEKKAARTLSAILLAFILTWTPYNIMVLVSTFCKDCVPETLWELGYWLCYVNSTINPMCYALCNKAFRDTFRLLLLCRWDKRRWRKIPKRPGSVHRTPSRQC
Description: as §1, §2, §3, §4, §5

O=C(CN1CCCc2ccccc21)NNC(=O)c1ccc2c(c1)OCO2 [DL22]
Inhibition of the cAMP response induced by 5 μM forskolin (Gi), in words [1]: none of the tested compounds were able to inhibit the cAMP response
Gs response (cAMP) [2]: None of the tested compounds induced Gs response
Gs response (cAMP) [3]: None of the tested compounds induced Gs response

COc1cc(OC)cc(C(=O)NNC(=O)C2CCCc3ccccc32)c1 (stereo not drawn) [DL24]
Inhibition of the cAMP response induced by 5 μM forskolin (Gi), in words [1]: none of the tested compounds were able to inhibit the cAMP response
Gs response (cAMP) [2]: None of the tested compounds induced Gs response
Gs response (cAMP) [3]: None of the tested compounds induced Gs response

CCn1c(C)nc2cc(C(=O)NNC(=O)Cc3cccc4ccccc34)ccc21 [DL43]
Inhibition of the cAMP response induced by 5 μM forskolin (Gi), in words [1]: none of the tested compounds were able to inhibit the cAMP response
Gs response (cAMP) [2]: None of the tested compounds induced Gs response
Gs response (cAMP) [3]: None of the tested compounds induced Gs response

O=C(Cc1cccc2ccccc12)NNC(=O)c1ccc2c(c1)OCO2 [DL126]
Inhibition of the cAMP response induced by 5 μM forskolin (Gi), in words [1]: none of the tested compounds were able to inhibit the cAMP response
Gs response (cAMP) [2]: None of the tested compounds induced Gs response
Gs response (cAMP) [3]: None of the tested compounds induced Gs response

O=C(CNC(=O)c1ccc2c(c1)OCO2)NC1CCSc2ccc(F)cc21 (stereo not drawn) [DL130]
Inhibition of the cAMP response induced by 5 μM forskolin (Gi), in words [1]: none of the tested compounds were able to inhibit the cAMP response
Gs response (cAMP) [2]: None of the tested compounds induced Gs response
Gs response (cAMP) [3]: None of the tested compounds induced Gs response

O=C(NCC(=O)N1CCCC1c1ccccc1)c1ccc2c(c1)OCO2 (stereo not drawn) [DL132]
Inhibition of the cAMP response induced by 5 μM forskolin (Gi), in words [1]: none of the tested compounds were able to inhibit the cAMP response
Gs response (cAMP) [2]: None of the tested compounds induced Gs response
Gs response (cAMP) [3]: None of the tested compounds induced Gs response
